Measured values: publication PMC4071002, “Identification and In Vitro Reactivity of Celiac Immunoactive Peptides in an Apparent Gluten-Free Beer” (PLoS ONE, 2014)
Residues, ends and D or L forms follow the SMILES beside them.

Test system: moAb A1 (anti-gliadin 33-mer)
Test: A1 competitive ELISA (immobilized gliadin, A1-HRP)
Format: binding
Conditions: Figure 2A
Description: Maxisorp microtitre plates (Nunc, Roskilde, Denmark) were coated with gliadin solution (Sigma, St Louis, MO, USA) and incubated overnight at 4°C. The plates were washed with phosphate-buffered saline (PBS) containing 0.05% Tween 20 and blocked with 5% non-fat dry milk in PBS for 1 h at room temperature (RT). 33-mer peptide was used as standard. Serial dilutions of peptides were made in PBS-bovine serum albumin (BSA) 3%, to each of which was added G12-HRP or A1-HRP antibody solution [14]. The samples were pre-incubated at RT, and then added to the wells. After 30 min of incubation at RT, the plates were washed and substrate solution (TMB, Sigma) was added. The reaction was stopped with 1 M sulphuric acid, and the absorbance at 450 nm was measured (microplate reader UVM340; Asys Hitech GmbH, Eugendorf, Austria). Two separate assays were performed, each with three repetitions.
Peptide curves were obtained by plotting percentage maximum absorbance against logarithm of antigen concentration. The software package Sigma Plot 9.0 (Systat Software, Inc., Point Richmond, CA, USA) was used to calculate IC50 and the cross-reactivity (CR) for each peptide. The IC50 is defined as the concentration that produces a reduction of 50% in the peak signal in the ELISA. The CR was determined as (IC50 of the peptide that presents the greatest affinity for the antibody/IC50 of each peptide assayed) x 100.

## CC(C)C[C@H](NC(=O)[C@H](CCC(N)=O)NC(=O)[C@@H](N)CC(C)C)C(=O)N[C@@H](CCC(N)=O)C(=O)N1CCC[C@H]1C(=O)N[C@@H](Cc1ccccc1)C(=O)N1CCC[C@H]1C(=O)N[C@@H](CCC(N)=O)C(=O)N1CCC[C@H]1C(=O)N[C@@H](CCC(N)=O)C(=O)N[C@@H](CC(C)C)C(=O)N1CCC[C@H]1C(=O)N[C@@H](Cc1ccc(O)cc1)C(=O)N1CCC[C@H]1C(=O)N[C@@H](CCC(N)=O)C(=O)N1CCC[C@H]1C(=O)N[C@@H](CCC(N)=O)C(=O)N[C@@H](CC(C)C)C(=O)N1CCC[C@H]1C(=O)N[C@@H](Cc1ccc(O)cc1)C(=O)N1CCC[C@H]1C(=O)N[C@@H](CCC(N)=O)C(=O)N1CCC[C@H]1C(=O)N[C@@H](CCC(N)=O)C(=O)N[C@@H](CC(C)C)C(=O)N1CCC[C@H]1C(=O)N[C@@H](Cc1ccc(O)cc1)C(=O)N1CCC[C@H]1C(=O)N[C@@H](CCC(N)=O)C(=O)N1CCC[C@H]1C(=O)N[C@@H](CCC(N)=O)C(=O)N1CCC[C@H]1C(=O)N[C@@H](Cc1ccccc1)C(=O)O [33-mer] (H-LQLQPFPQPQLPYPQPQLPYPQPQLPYPQPQPF-OH; N-terminus and C-terminus assumed)
Competitive ELISA, gliadin-coated plates, A1-HRP, 30 min RT, absorbance 450 nm, two assays, three replicates each
  moAb A1 IC50: 0.60 µg/mL
cross-reactivity = (IC50 of peptide with greatest affinity / IC50 of each peptide) x 100, PP 24.1 = 100
  moAb A1 CR: 241.67%
